Data reported in ChEMBL document CHEMBL5036349, “Development of potent dual PDK1/AurA kinase inhibitors for cancer therapy: Lead-optimization, structural insights, and ADME-Tox profile” (Eur J Med Chem, 2021).
The source made the active and inactive calls. The calls are words filed in the database; no cut-off is given here.

Tests used:
SK-N-MC [1] = experiment: Upregulation of Cdc2 protein expression level in human SK-N-MC cell at 1 uM incubated for 2 hrs by western blot analysis; format: functional, tissue-based
[2] = Cytotoxicity against human 6647 cells at 30 uM assessed as cell proliferation rate measured after 72 hrs by MTT assay relative to control; format: functional
Rec1 [3] = experiment: Cytotoxicity against human REC1 cells at 30 uM assessed as cell proliferation rate measured after 72 hrs by MTT assay relative to control; format: functional
[4] = Cmax in CD-1 mouse at 10 mg/kg iv measured by UPLC-MS/MS method; format: ADME, organism-based; parameters: route intravenous, dose 10 mg/kg; settings: in vivo
HCT-116 = experiment: Anticlonogenic activity against human HCT-116 cells assessed as reduction of cell survival at 0.5 to 20 uM measured after 10 days by SRB staining clonogenic survival assay; format: functional, cell-based; settings: dose 0.5-20 µM, time 10.0 day
A673 = experiment: Cytotoxicity against human A673 cells measured after 72 hrs by MTT assay; format: functional, cell-based; settings: A673, 72 h
[5] = AUC in CD-1 mouse at 10 mg/kg iv measured by UPLC-MS/MS method; format: ADME, organism-based; parameters: dose 10 mg/kg; settings: in vivo
Rec1 [6] = experiment: Cytotoxicity against human REC1 cells measured after 72 hrs by MTT assay; format: functional, cell-based; settings: Rec1, 72 h
[7] = target: Aurora kinase A (Homo sapiens) (UniProt O14965); experiment: Modulation in AURA protein in human SK-N-MC cell at 1 uM measured after 30 min by Western blot analysis; format: tissue-based
Chain of Aurora kinase A (Homo sapiens) (O14965 whole entry): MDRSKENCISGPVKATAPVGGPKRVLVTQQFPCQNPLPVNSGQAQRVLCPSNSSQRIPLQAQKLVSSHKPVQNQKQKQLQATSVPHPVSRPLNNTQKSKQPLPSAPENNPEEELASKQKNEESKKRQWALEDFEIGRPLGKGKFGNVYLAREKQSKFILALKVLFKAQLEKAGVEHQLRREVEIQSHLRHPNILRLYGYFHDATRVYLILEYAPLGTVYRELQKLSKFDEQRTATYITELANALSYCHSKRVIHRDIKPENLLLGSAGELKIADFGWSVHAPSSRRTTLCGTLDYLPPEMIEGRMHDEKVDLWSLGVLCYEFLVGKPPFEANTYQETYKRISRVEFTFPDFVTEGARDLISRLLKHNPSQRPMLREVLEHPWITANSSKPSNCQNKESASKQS

[8] = Cytotoxicity against human TC71 cells at 30 uM assessed as cell proliferation rate measured after 72 hrs by MTT assay relative to control; format: functional; settings: TC-71
[9] = Half life in CD-1 mouse at 10 mg/kg iv measured by UPLC-MS/MS method; format: ADME, organism-based; settings: in vivo
SK-N-MC [10] = experiment: Inhibition of MAPK signaling in human SK-N-MC cell assessed as decrease in phosphorylated ERK 1/2 at 1 uM measured after 30 min by Western blot analysis; format: tissue-based
[11] = Clearance in CD-1 mouse at 10 mg/kg iv measured by UPLC-MS/MS method; format: ADME, organism-based; settings: in vivo
SK-N-MC [12] = experiment: Upregulation of p21 protein expression level in human SK-N-MC cell at 1 uM incubated for 2 hrs by western blot analysis; format: functional, tissue-based
SK-N-MC [13] = experiment: Upregulation of RB1 protein expression level in human SK-N-MC cell at 1 uM incubated for 2 hrs by western blot analysis; format: functional, tissue-based
TC-71 = experiment: Anticlonogenic activity against human TC71 cells assessed as reduction of cell survival at 0.5 to 20 uM measured after 10 days by SRB staining clonogenic survival assay; format: functional, cell-based; settings: dose 0.5-20 µM, time 10.0 day
[14] = target: Ribosomal protein S6 kinase alpha-3 (Homo sapiens) (UniProt P51812); experiment: Inhibition of human RSK2 in human SK-N-MC cell assessed as inhibition of RSK2 phosphorylation at 1 uM measured after 30 min by Western blot analysis; format: tissue-based
Chain of Ribosomal protein S6 kinase alpha-3 (Homo sapiens) (P51812 whole entry): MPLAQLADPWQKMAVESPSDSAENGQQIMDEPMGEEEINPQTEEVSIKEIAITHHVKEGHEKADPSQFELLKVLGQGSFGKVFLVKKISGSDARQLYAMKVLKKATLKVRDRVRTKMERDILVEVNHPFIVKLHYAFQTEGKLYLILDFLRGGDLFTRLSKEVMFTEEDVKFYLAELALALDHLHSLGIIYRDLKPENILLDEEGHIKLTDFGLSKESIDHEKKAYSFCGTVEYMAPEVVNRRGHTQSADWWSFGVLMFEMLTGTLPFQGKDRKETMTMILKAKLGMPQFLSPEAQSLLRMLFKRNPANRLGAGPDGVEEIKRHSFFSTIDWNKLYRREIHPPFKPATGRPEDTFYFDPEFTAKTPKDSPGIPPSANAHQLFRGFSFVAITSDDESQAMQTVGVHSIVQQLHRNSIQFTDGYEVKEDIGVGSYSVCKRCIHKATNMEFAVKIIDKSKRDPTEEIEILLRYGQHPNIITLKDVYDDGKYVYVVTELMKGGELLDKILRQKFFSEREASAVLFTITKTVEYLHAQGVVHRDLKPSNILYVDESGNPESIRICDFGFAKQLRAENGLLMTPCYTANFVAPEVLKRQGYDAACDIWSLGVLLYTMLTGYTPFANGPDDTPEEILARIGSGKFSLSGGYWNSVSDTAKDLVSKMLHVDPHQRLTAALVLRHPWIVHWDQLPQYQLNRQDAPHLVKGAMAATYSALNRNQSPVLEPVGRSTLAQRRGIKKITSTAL

[15] = AUC (infinity) in CD-1 mouse at 10 mg/kg iv measured by UPLC-MS/MS method; format: ADME, organism-based; parameters: time infinity, route intravenous, dose 10 mg/kg; settings: in vivo
[16] = target: 3-phosphoinositide-dependent protein kinase 1 (Homo sapiens) (UniProt O15530); experiment: Modulation in PDK-1 phosphorylation in human SK-N-MC cell at 1 uM measured after 30 min by Western blot analysis
Chain of 3-phosphoinositide-dependent protein kinase 1 (Homo sapiens) (O15530 whole entry, looked up): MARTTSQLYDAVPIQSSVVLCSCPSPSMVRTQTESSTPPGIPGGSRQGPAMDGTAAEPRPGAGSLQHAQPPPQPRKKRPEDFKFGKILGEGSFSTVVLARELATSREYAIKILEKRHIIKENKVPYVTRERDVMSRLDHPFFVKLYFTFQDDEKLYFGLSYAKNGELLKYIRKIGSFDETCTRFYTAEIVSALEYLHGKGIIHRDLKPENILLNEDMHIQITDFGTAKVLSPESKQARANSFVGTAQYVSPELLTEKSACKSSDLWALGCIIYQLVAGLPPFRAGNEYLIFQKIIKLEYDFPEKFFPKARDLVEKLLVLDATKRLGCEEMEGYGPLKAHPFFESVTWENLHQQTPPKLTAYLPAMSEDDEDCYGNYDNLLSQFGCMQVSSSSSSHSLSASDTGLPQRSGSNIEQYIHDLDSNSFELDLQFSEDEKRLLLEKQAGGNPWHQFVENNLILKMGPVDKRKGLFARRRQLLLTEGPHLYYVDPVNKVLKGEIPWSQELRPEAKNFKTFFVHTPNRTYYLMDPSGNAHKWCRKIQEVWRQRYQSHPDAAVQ

Cmax [4]: 1300 ng/mL
AUC [5]: 4220 ng·h/mL
Activity [7]: inactive
t1/2 [9]: 1.5 h
CL [11]: 75 mL/h
inhibition [14]: Active
AUC [15]: 5720 ng·h/mL
Activity [16]: inactive
Compound: O=C1Nc2ccc(NC(=O)[C@H](NC(=O)c3cccn(Cc4ccc(F)c(F)c4)c3=O)c3ccccc3)cc2/C1=C/c1cnc[nH]1 (stereo in doubt)
Activity (SK-N-MC [1]): Active
Emax at 30 µM [2]: 84%
Emax at 30 µM (Rec1 [3]): 55%
Activity (HCT-116): Dose-Dependent Effect
IC50 (A673): > 30 µM
IC50 (Rec1 [6]): 11 µM
Emax at 30 µM [8]: 60%
inhibition (SK-N-MC [10]): Active
Activity (SK-N-MC [12]): Active
Activity (SK-N-MC [13]): Active
Activity (TC-71): Dose-Dependent Effect
